The subject of one assay is H1299 cells. Kind of assay: β-gal expression after gene delivery with Ad/PLL/DNA complex or lipofectamine in CDDP-treated cells. The settings on record: 48 hrs after CDDP removal. It is filed as cell-based, human. How it is done: Gene Transfer Vectors: The recombinant adenovirus carrying the Escherichia coli β-galactosidase gene under the control of the human cytomegalovirus enhancer/promotor (Ad/CMV/β-gal) or the replication defective adenovirus were propagated on 293 cells and purified and stored using techniques previously reported (Nguyen et al., 1996). Viral titer was determined by UV spectrophotometric analysis (Nguyen et al., 1996a; 1996b). To determine if the CDDP-induced enhancement of gene expression would be dependent on the method of gene delivery, two other gene delivery systems were used: the Ad/PLL/DNA complex (Nguyen et al., 1996a; 1996b) and cationic liposomes (Lipofectamine, Gibco BRL). CDDP (0.062 μg/ml)-treated H1299 cells were incubated with either gene delivery system carrying a plasmid that contained the β-gal gene under the control of the CMV enhancer/promotor (CMV/β-gal) 48 hours after drug removal. Plasmid DNA was isolated by the alkaline lysis technique and purified by using Qiagen DNA purification kits (Qiagen, Chatsworth, Calif.). Plasmid containing liposome preparations and gene transfer were performed according to the manufacturer's protocol. The conjugated Ad/PLL/DNA complex was constructed and used to deliver the β-gal gene to H1299 and H460 cells as described elsewhere (Nguyen et al., 1996a; 1996b).

The test system of the next assay is H460 cells. Kind of assay: β-gal expression by X-gal staining after Ad/CMV/β-gal infection of CDDP-treated cells. It is filed as cell-based, human. How it is done:
Gene Delivery Protocol: In vitro gene delivery was performed by incubating cells in six-well plates (Falcon Plastics, Lincoln Park, N.J.) for two hours with Adv/CMV/β-gal in appropriate medium supplemented with 2% FCS. The multiplicity of infection (MOI: number of viral particles per target cell) was based on cell counts of untreated wells. Fresh, complete medium with the appropriate concentration of FCS was then added to the wells at the end of the infection period and cells were then incubated for 20 hours at 37° C., 5% CO2. After washing the cells with ice cold PBS, the cells were fixed with ice-cold 1.25% glutaraldehyde and stained with X-gal (5-bromo-4-chloro-3-indolyl-β-d-galactoside; Gibco BRL) as previously described (MacGregor et al., 1987). The transduction efficiency by Adv/CMV/β-gal was determined by the percentage of positive stained cells (blue) for β-galactosidase activity (1000 cells counted per well).
Time Course and Dose Response: To determine the time course of enhancement, H1299 and H460 cells were seeded in 6-well plates (2×10^5 cells/2 mls/well). After an overnight incubation period (37° C., 5% CO2), the initial medium was replaced with freshly prepared media (2 ml) containing 0.062 μg/ml CDDP (Sigma Chemicals, St. Louis, Mo.) (CDDP was prepared fresh by dissolving in distilled water) and the cells were then incubated for 24 hours at 37° C., with 5% CO2. CDDP-treated cells were then washed twice with PBS and subsequently infected with Ad/CMV/β-gal (MOI=1 for H1299 and MOI=5 for H460) on days 0, 1, 2, 3, 4, 5 or 6 following CDDP removal, to determine the time point at which maximal enhancement of expression was occurring. To establish the dose of CDDP needed to produce maximum enhancement, the cells were treated with different concentrations of CDDP (serial, 1:4 dilutions, ranging from 4 μg/ml to 0.0002 μg/ml, 5 ml per 60 mm dish) for 24 hours and subsequently incubated with Ad/CMV/β-gal 48 hours after removal of CDDP. […]

Data on one molecule can be found in patent US6989375B2, “Enhanced expression of transgenes” (priority 1996, dated 2006).

SMILES strings stand for the structures.

As to `N.N.[Cl][Pt][Cl]` [CDDP, cis-dichlorodimminocisplatin], the “β-gal gene expressing cells compared with adenovirus-mediated gene transfer” value with H1299 cells (cationic phospholipid lipofectamine carrying CMV/β-gal plasmid) and with H1299 cells (conjugated Ad/PLL/DNA complex carrying CMV/β-gal plasmid) was “same magnitude” throughout. Besides, the “CDDP concentration at which maximal enhancement of β-gal gene expression occurred” value in the assay on H460 cells (24 h exposure, infected 48 hours after CDDP removal) amounted to 0.062 µg/mL. In addition, the “Time of gene transfer after drug treatment for maximal enhancement” value with H460 cells (CDDP 0.062 μg/ml) is “about 48 hours”. For the same molecule, the “Enhancement of β-gal gene expression” value with H460 cells (CDDP at 0.0039 and 1 μg/ml, infected 48 hours after CDDP removal) is given as “also an enhancement”.
